Activity calls are given as the source filed them. The rule behind the calls is not given here.
What was measured:
[1] = test system: MDA-MB-231; experiment: Reduction in H3K9me2 level in human MDA-MB-231 cells at 10 uM by Western blot analysis; type: functional, cell-based; conditions: time 24-96 hrs, TDE = time-dependent effect
[2] = test system: MDA-MB-231; experiment: Inhibition of colony formation in human MDA-MB-231 cells at […] incubated for 14 days drug medium changed for every 2 days by crystal violet staining based analysis; type: cell-based; conditions: dose 2.5 µM, time 14.0 day
[3] = target: Histone-lysine N-methyltransferase EZH2 (Homo sapiens, UniProt Q15910); experiment: Inhibition of EZH2 (unknown origin)
Histone-lysine N-methyltransferase EZH2, sequence (Q15910 whole entry): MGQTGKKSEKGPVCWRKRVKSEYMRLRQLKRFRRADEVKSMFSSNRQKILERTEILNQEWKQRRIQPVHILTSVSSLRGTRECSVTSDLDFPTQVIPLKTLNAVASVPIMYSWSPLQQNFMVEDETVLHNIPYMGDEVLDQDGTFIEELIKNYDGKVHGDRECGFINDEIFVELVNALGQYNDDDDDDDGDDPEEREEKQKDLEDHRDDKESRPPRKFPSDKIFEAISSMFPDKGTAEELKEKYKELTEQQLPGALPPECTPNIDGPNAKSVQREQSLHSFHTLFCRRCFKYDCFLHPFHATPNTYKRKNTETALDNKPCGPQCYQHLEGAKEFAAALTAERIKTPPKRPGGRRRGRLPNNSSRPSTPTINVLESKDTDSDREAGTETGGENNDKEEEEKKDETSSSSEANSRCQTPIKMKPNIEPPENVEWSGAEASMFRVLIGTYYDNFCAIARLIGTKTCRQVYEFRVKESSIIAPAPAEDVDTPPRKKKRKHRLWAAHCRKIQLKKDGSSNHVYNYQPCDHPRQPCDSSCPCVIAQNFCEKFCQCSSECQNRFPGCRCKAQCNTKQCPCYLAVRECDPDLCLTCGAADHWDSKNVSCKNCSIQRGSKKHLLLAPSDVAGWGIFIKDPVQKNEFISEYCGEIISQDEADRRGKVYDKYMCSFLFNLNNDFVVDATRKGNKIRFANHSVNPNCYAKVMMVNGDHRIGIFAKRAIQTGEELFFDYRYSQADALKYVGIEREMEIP

[4] = target: T1, Histone-lysine N-methyltransferase EHMT1 (Homo sapiens, UniProt Q9H9B1); experiment: Inhibition of GLP (unknown origin) by AlphaLISA assay
T1 sequence (Q9H9B1 whole entry): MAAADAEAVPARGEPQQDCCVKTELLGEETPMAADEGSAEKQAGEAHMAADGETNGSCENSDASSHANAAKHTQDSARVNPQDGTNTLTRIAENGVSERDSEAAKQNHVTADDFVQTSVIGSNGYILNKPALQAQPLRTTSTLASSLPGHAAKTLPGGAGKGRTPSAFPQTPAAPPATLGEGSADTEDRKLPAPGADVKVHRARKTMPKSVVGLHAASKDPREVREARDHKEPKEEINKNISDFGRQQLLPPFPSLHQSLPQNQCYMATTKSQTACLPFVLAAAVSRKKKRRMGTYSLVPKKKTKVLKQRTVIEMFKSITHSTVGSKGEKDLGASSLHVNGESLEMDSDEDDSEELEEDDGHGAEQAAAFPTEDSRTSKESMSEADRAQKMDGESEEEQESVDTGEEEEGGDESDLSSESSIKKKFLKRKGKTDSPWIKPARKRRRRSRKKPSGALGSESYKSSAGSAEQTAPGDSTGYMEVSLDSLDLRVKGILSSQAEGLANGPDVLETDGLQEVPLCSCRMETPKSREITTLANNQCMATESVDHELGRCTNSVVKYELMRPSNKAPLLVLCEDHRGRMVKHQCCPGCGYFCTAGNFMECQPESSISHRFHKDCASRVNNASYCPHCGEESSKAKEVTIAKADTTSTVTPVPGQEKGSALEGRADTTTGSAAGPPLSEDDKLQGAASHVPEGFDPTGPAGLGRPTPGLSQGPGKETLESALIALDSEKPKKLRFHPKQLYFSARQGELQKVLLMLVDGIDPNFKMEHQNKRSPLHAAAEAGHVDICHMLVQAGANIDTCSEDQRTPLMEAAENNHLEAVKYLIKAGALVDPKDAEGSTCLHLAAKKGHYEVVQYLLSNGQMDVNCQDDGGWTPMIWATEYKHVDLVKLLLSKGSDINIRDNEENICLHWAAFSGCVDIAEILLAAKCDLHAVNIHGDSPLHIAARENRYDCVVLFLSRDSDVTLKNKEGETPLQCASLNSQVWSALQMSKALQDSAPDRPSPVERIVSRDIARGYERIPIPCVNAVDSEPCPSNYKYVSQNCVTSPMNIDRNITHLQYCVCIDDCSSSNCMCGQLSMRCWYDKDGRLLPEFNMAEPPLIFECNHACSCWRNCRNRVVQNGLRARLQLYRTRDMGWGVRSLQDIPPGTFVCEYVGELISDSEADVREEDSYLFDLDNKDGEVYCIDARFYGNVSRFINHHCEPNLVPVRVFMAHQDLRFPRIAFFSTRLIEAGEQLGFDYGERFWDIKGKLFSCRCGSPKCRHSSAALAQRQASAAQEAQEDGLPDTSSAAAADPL

[5] = target: Histone-lysine N-methyltransferase 2A (Homo sapiens, UniProt Q03164); experiment: Inhibition of MLL1 (unknown origin)
Histone-lysine N-methyltransferase 2A, sequence (Q03164 1-2718 limits assumed): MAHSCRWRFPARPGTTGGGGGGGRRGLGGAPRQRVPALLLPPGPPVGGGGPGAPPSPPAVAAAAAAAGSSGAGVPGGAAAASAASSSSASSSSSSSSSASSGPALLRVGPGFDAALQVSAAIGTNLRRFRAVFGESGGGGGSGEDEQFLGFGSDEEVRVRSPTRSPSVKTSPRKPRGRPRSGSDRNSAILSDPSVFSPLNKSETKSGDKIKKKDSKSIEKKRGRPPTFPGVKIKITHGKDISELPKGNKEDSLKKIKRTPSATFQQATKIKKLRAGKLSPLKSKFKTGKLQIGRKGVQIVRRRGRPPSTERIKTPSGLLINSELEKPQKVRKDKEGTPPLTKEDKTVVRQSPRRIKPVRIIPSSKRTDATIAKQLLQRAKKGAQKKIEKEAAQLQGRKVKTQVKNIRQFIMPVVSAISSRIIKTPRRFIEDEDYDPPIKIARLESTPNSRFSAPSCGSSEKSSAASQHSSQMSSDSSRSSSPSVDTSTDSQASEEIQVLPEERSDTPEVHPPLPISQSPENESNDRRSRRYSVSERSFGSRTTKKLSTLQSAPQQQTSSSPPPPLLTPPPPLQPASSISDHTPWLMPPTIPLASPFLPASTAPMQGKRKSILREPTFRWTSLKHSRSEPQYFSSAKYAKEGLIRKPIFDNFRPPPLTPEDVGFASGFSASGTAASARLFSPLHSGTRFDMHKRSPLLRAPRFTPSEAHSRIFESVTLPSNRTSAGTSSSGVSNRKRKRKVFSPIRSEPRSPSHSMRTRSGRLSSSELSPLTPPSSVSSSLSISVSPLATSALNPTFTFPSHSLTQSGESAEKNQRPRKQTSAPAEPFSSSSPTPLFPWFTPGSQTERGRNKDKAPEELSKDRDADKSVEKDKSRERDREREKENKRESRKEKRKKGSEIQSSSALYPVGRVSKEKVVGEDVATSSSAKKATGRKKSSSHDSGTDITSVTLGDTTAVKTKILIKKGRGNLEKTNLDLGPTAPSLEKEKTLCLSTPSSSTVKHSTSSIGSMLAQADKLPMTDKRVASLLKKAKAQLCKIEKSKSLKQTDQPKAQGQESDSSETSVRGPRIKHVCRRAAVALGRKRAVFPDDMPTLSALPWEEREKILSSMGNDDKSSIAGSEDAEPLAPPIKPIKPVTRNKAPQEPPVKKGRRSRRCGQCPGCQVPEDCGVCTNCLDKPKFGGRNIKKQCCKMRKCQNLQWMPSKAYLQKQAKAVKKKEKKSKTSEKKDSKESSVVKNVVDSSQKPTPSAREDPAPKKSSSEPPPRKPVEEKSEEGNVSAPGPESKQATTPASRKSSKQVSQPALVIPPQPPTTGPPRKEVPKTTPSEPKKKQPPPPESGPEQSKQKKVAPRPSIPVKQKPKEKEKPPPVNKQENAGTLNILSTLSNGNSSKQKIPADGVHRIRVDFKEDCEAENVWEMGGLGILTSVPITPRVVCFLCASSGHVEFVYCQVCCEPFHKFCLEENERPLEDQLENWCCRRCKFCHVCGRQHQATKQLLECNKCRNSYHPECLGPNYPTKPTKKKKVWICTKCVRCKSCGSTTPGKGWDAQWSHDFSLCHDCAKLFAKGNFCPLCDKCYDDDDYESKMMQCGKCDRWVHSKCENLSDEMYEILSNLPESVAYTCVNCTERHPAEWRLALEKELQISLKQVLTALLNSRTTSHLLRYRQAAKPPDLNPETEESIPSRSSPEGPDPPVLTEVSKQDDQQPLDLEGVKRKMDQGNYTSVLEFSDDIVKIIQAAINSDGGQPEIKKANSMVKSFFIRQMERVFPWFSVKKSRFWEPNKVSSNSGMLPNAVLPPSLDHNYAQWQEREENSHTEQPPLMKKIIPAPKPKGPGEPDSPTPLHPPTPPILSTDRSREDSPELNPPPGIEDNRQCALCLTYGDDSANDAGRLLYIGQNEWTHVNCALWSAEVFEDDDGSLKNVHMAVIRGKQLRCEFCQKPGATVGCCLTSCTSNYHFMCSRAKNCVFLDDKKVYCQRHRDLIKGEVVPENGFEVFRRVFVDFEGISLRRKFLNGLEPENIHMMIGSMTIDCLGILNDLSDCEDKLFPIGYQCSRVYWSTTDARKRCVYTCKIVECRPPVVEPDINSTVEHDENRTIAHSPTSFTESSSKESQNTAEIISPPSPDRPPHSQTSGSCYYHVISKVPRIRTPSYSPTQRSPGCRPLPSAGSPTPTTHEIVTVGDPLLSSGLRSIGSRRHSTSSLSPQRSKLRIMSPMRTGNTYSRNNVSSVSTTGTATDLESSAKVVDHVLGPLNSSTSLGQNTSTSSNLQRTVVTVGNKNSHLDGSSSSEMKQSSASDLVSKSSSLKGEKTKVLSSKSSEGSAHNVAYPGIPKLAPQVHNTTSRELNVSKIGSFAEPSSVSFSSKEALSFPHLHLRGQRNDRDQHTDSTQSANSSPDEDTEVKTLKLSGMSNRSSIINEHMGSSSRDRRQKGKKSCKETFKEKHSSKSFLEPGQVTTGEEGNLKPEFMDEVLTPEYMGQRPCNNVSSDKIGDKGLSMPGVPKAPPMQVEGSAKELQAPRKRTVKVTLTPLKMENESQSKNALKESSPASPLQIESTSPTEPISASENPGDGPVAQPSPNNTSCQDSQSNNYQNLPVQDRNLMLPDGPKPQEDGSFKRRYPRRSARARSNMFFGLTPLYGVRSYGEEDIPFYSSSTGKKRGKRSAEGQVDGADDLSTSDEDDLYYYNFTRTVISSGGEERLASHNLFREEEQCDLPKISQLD
Histone-lysine N-methyltransferase 2A, sequence (Q03164 2719-3969 limits assumed): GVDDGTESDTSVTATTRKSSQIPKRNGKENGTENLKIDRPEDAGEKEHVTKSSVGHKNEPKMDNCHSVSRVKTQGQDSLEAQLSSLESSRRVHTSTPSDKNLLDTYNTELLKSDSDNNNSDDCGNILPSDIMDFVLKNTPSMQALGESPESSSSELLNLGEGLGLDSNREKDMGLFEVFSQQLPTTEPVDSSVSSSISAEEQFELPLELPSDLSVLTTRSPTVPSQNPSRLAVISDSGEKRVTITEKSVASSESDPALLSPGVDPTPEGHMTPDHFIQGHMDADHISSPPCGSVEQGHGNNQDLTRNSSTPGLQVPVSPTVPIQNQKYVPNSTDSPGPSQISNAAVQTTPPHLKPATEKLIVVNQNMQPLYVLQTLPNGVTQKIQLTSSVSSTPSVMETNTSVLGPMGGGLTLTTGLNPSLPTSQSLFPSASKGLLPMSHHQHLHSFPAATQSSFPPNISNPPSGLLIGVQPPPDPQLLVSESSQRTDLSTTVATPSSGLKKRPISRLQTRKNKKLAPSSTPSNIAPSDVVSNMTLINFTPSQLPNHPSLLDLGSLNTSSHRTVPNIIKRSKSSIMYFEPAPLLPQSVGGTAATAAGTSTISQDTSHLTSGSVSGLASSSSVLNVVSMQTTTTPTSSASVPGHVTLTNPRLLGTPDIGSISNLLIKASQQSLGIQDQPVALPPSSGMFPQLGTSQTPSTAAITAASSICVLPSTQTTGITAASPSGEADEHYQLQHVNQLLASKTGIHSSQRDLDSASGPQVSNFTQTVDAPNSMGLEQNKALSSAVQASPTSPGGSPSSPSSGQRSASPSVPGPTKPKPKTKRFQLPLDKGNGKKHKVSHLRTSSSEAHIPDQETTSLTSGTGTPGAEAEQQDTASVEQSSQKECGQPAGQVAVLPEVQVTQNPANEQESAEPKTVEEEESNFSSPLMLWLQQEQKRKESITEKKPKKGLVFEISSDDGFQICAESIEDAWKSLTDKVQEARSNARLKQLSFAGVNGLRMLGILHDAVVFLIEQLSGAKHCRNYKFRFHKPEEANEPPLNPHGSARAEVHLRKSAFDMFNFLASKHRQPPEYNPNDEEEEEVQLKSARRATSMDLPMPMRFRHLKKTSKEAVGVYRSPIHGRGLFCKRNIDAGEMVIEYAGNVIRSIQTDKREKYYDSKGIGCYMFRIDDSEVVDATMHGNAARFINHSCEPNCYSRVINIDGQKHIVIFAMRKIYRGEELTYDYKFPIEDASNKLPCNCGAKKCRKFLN

[6] = Cmax in ICR mouse at 2 mg/kg, ip measured upto 24 hrs by LC-MS/MS analysis; type: ADME, organism-based; set-up: time < 24 hrs, dose 2 mg/kg, route ip; conditions: in vivo
[7] = target: T2, Histone-lysine N-methyltransferase EHMT1 (Homo sapiens) (UniProt Q9H9B1); experiment: Covalent inhibition of recombinant GLP (unknown origin) assessed as adduct formation intensity by mass spectrometric analysis; conditions: time <= 16.0 hrs, TDE = time-dependent effect
T2 sequence (whole entry): T1 sequence (Q9H9B1 whole entry)

[8] = target: T2, Histone-lysine N-methyltransferase EHMT1 (Homo sapiens); experiment: Covalent inhibition of recombinant GLP (unknown origin) assessed as adduct formation intensity by measuring mass after 12 hrs by mass spectrometric analysis
[9] = test system: PANC-1; experiment: In vivo antitumor activity against human PANC-1 cells xenografted in Balb/c mouse model assessed as reduction in H3K9me2 level in tumor at 2 mg/kg, ip treated for 22 days relative to control; type: functional, organism-based; conditions: time 22.0 day
[10] = test system: PANC-1; experiment: In vivo antitumor activity against human PANC-1 cells xenografted in Balb/c mouse model assessed as tumor growth inhibition at 2 mg/kg, ip treated for 22 days relative to control; type: functional; conditions: PANC-1, 528 h, time 22 day, read-out: TGI
[11] = target: DNA (cytosine-5)-methyltransferase 1 (Homo sapiens, UniProt P26358); experiment: Inhibition of DNMT1 (unknown origin)
[12] = test system: PANC-1; experiment: Antiproliferative activity against human PANC-1 cells assessed as cell viability measured after 24 hrs by CCK-8 assay; type: functional, cell-based; conditions: PANC-1, 24 h

For C=CC(=O)N(C)c1nc(NC2CCN(C)CC2)c2cc(OC)c(OCCCN3CCCC3)cc2n1, the inhibition [1] was “Tde”, the inhibition [2] was “Active” and the IC50 [3] was > 20000 nM. The IC50 [4] was 5 nM, the IC50 [5] was > 20000 nM and the Cmax [6] was 316 ng/mL. For the same molecule, the inhibition [7] was “Tde”, the Activity [8] was 53800 Da and the inhibition [9] was “Active”. For the same molecule, the inhibition in vivo at 2 mg/kg [10] was 52.2%, the IC50 [11] was > 20000 nM and the IC50 [12] was 2680 nM.

— ChEMBL document CHEMBL5338815 (J Med Chem, 2023)
